Measurements reported in PubChem BioAssay AID1259338 (Broad Institute, 2017).
The source made the active and inactive calls.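 Rule for the calls: active = compounds lowering the signal with a fitted AC50 at or below a set concentration limit; inconclusive = flat curve with 30 to 70% inhibition, or a poor fit; inactive = the rest.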

Target: Caspase recruitment domain-containing protein 9 (Homo sapiens) + E3 ubiquitin-protein ligase TRIM62 (Homo sapiens) (UniProt Q9H257+Q9BVG3)
Experiment: CARD9/TRIM62 protein interaction inhibitors – cell lysate, HEK293FT lysates, Luminex bead readout, dose response (AID 1259338); for activity change, negative = inhibition: reference of the scale not given here
Conditions: Luminex bead PPI, MFI; for activity change, negative = inhibition: at 80 µM (top of the series)

Caspase recruitment domain-containing protein 9 (Homo sapiens) + E3 ubiquitin-protein ligase TRIM62 (Homo sapiens), sequence (Q9BVG3 whole entry, looked up, the tested form may be a part): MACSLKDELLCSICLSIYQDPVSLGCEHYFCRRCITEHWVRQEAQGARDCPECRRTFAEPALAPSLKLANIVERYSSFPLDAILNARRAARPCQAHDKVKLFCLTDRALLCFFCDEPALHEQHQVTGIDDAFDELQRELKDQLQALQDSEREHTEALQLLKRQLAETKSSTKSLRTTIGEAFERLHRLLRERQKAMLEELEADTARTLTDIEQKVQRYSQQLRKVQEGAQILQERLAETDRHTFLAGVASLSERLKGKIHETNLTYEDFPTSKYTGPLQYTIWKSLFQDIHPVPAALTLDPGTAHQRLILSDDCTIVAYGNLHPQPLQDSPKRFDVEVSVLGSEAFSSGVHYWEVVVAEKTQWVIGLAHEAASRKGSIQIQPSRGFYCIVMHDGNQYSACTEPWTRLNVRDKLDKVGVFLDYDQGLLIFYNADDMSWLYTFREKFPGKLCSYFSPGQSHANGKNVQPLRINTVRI
Caspase recruitment domain-containing protein 9 (Homo sapiens) + E3 ubiquitin-protein ligase TRIM62 (Homo sapiens), sequence (Q9H257 whole entry, looked up, the tested form may be a part): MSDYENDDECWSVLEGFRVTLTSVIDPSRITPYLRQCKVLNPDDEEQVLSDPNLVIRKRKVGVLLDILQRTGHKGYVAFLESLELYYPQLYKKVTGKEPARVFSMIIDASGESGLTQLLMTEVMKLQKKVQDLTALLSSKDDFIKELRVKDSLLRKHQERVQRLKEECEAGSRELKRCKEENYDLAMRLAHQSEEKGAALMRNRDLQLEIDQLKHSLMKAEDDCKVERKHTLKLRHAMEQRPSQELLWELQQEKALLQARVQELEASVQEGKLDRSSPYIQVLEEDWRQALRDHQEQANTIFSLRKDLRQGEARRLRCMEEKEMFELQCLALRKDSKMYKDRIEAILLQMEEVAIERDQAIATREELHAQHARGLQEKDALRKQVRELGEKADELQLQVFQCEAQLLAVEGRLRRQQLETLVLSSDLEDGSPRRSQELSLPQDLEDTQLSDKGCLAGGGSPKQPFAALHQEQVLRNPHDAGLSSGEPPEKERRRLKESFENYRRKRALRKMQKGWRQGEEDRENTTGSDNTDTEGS

## Cc1ccc(C)n1NC(=O)c1ccccc1O
  activity change, negative = inhibition: inactive

## O=C(COc1cccnc1[N+](=O)[O-])c1ccc(Cl)s1
  activity change, negative = inhibition: inactive

## Cc1ccc(-c2nn(-c3ccccc3)cc2CN(Cc2ccccc2)C(=O)CCC(=O)O)o1
  activity change, negative = inhibition: inactive

## CCc1cc2c(=O)n(Cc3ccco3)c(SC)nc2s1
  activity change, negative = inhibition: inactive

## Cc1noc(C)c1S(=O)(=O)Nc1ccc2c(c1)C(=O)N([C@H](C)CO)C[C@H](C)[C@@H](CN(C)CC1CCCCC1)OCCCC[C@H](C)O2
  activity change, negative = inhibition: inactive

## CC(=O)Nc1ccc2nc3c(=O)n(C)c(=O)n(C)c3nc2c1
  activity change, negative = inhibition: inactive

## C[n+]1cccc2cccc(O)c21
  activity change, negative = inhibition: inactive

## Cc1oc(CSCc2cc(C(=O)O)c(C)o2)cc1C(=O)O
  activity change, negative = inhibition: inactive

## C[C@H](CO)N1C[C@H](C)[C@@H](CN(C)CC2CCCCC2)OCCCC[C@H](C)Oc2ccc(NS(=O)(=O)c3cccs3)cc2C1=O
  activity change, negative = inhibition: inactive

## C(=N\n1cnnc1SCc1ccccc1)/c1ccco1
  activity change, negative = inhibition: inactive

## CCc1nc(OCc2ccco2)c2sc3nc4c(cc3c2n1)COC(C)(C)C4
  activity change, negative = inhibition: inactive

## O=C(Cc1cccs1)Nc1nnc(Cc2ccccc2)s1
  activity change, negative = inhibition: inactive

## N#Cc1c(N)oc(-c2ccco2)c1-c1ccco1
  AC50: > 160 µM (inactive)

## N#Cc1c(-c2ccco2)cc(-c2ccccn2)nc1N
  activity change, negative = inhibition: inactive

## O=C(O)CCc1ccc(-c2cccs2)n1NC(=O)c1ccco1
  activity change, negative = inhibition: inactive

## c1coc(-c2cn3ccc4ccccc4c3n2)c1
  activity change, negative = inhibition: inactive

## CCCOc1ccc(CCC(=O)O)cc1
  activity change, negative = inhibition: inactive

## CC1(C)Cc2c(c(N3CCOCC3)nc3sc(C(=O)NCc4ccco4)c(N)c23)CO1
  activity change, negative = inhibition: inactive

## CCN(CCNC(=O)C1CCN(S(=O)(=O)c2c(C)noc2C)CC1)c1ccccc1
  activity change, negative = inhibition: inactive

## O=[N+]([O-])c1ccc2cc[nH]c2c1
  activity change, negative = inhibition: inactive

## CCCC(=O)NCc1ccc2c(c1)cc(C)n2C
  activity change, negative = inhibition: inactive

## CCCCCn1c(NC(=O)c2ccco2)c(C(=O)OCC)c2nc3ccccc3nc21
  activity change, negative = inhibition: inactive

## O=C(NCCc1ccco1)c1ccc(OCc2cn3ccccc3n2)cc1
  activity change, negative = inhibition: inactive

## Cc1cncc(-c2ccc(S(N)(=O)=O)cc2F)c1
  AC50: 53.4 µM

## O=C(O)c1ccc2nc(-c3ccco3)c(-c3ccco3)nc2c1
  AC50: 34.7 µM

## CC(C)(C)c1ccc(-c2nc(C#N)c(NCc3ccncc3)o2)cc1
  activity change, negative = inhibition: inactive

## C[C@H](CO)N1C[C@H](C)[C@@H](CN(C)CC2CCCCC2)OCCCC[C@H](C)Oc2ccc(NS(=O)(=O)c3ccccc3)cc2C1=O
  activity change, negative = inhibition: inactive

## Cc1ccsc1[C@@H]1CCN(Cc2ccc(-c3ccn[nH]3)o2)C[C@H]1O
  AC50: > 160 µM (inactive)

## N#Cc1c(-c2ccco2)cc(-c2cccnc2)nc1N
  activity change, negative = inhibition: inactive

## O=c1/c(=C/c2ccco2)sc2nc3ccccc3n12
  activity change, negative = inhibition: inactive

## Nc1cc2c(cc1-n1cccc1)OCCO2
  activity change, negative = inhibition: inactive

## O=C(Nc1nc(-c2ccccn2)cs1)c1cccc(-n2cnnn2)c1
  AC50: 77.9 µM

## CCc1oc2ccccc2c1C(=O)CCN1CCCCC1
  activity change, negative = inhibition: inactive

## O=[N+]([O-])c1cccc(-c2nnc3ccc4ccccc4n23)c1
  AC50: 80.2 µM

## CCCN1CCCn2nc(CNC(=O)[C@@H](N)Cc3ccc(O)cc3)cc2C1
  AC50: 27.8 µM
